Source: US7737309B2, “Clathrate compound, method for controlling concentration of aqueous agricultural chemical active ingredient solution, and agricultural chemical formulation” (Nippon Soda Co., Ltd., priority 2004, dated 2010)
Where a name gives a salt, the structure may show the parent alone. Read-outs that look alike come from different tables or passages of the source.

Legend:
[1] = Measurement of saturated solubility; assay type: physicochemical; conditions: for saturated solubility: after standing at 25° C. for 192 hours; for Concentration of acetamiprid: distilled water at 25° C.
Method: After weighing a fixed amount of each of the Clathrate compounds 1 to 4 obtained in Examples 1 to 4 and an acetamiprid as a control in a measuring flask, distilled water at 25° C. was added to obtain an equal volume. After stoppering and up-and-down shaking for 5 times, the measuring flask was allowed to stand in an incubator at 25° C. After up-and-down shaking for 5 times followed by sampling with the passage of time, water at 25° C. was added to obtain an equal volume again, and sampling was carried out up to 192 hours. The concentration of acetamiprid in the sampled solution was measured by HPLC and then the saturated solubility was calculated.

striped flea beetle = test: Test as a seed treatment agent used in combination with a synthetic pyrethroid agent (rapeseeds); assay type: in vivo; conditions: Treatment amount 500 g/100 kg of seeds
Text: (§1) Immediately after that, the vinyl bag was closed, and the rapeseeds were coated with the chemical by vigorously shaking for 30 seconds. These seeds were spread over a tray and then air-dried at room temperature overnight to obtain rapeseeds coated with 500 g of acetamiprid per 100 kg of seeds.
as §1, with “g of bifenthrin and 500 g of acetamiprid per” for “g of acetamiprid per”
The obtained seeds were seeded in a No. 2 pot containing alluvial soil and then cultivated in a greenhouse. […] 2 days after standing, the number of incidences of insect damage due to imagines of striped flea beetle of 3 plants in each experimental plot was counted.

[2] = cited from earlier work

With CC(=NC#N)N(C)Cc1ccc(Cl)nc1.CC(=NC#N)N(C)Cc1ccc(Cl)nc1.Oc1ccc(C(c2ccc(O)cc2)C(c2ccc(O)cc2)c2ccc(O)cc2)cc1 [Clathrate compound 1] the saturated solubility [1] was 232 ppm, the Concentration of acetamiprid ([1]; 1 hour) was 121 ppm and the Concentration of acetamiprid ([1]; 3 hours) was 134 ppm. The Concentration of acetamiprid ([1]; 24 hours) was 193 ppm, the Concentration of acetamiprid ([1]; 48 hours) was 210 ppm and the Concentration of acetamiprid ([1]; 72 hours) was 221 ppm. The Concentration of acetamiprid ([1]; 192 hours) was 232 ppm.
For Cc1c(COC(=O)[C@@H]2[C@H](/C=C(\Cl)C(F)(F)F)C2(C)C)cccc1-c1ccccc1 (racemic) [Bifenthrin], the “Insecticidal ratio % after 15 days” value (striped flea beetle) was 75.4% and the “Number of incidences of insect damage/3 plants after 15 days” value (striped flea beetle) was 98.
For C/C(=N\C#N)N(C)Cc1ccc(Cl)nc1 [Acetamiprid, (E)-N1-[(6-chloro-3-pyridyl)methyl]-N2-cyano-N1-methylacetamidine, reference compound], the saturated solubility [1] was 3807 ppm, the Concentration of acetamiprid ([1]; 1 hour) was 2,822 ppm and the Concentration of acetamiprid ([1]; 3 hours) was 3,273 ppm. For the same molecule, the Concentration of acetamiprid ([1]; 24 hours) was 3,734 ppm, the Concentration of acetamiprid ([1]; 48 hours) was 3,776 ppm and the Concentration of acetamiprid ([1]; 72 hours) was 3,752 ppm. For the same molecule, the Concentration of acetamiprid ([1]; 192 hours) was 3,807 ppm and the aqueous solubility ([2]; 25° C.) was 4200 ppm.
For COP(=O)(NC(C)=O)SC (centres unmarked) [acephate, O,S-dimethyl-N-acetylphosphoroamide thioate], the aqueous solubility ([2]; temperature not given) is given as “about 650000 ppm”.
For CCN(Cc1ccc(Cl)nc1)/C(=C/[N+](=O)[O-])NC [nitenpyram, (E)-N-(6-chloro-3-pyridylmethyl)-N-ethyl-N′-methyl-2-nitrovinylidenediamine], the aqueous solubility ([2]; temperature not given) is listed as “about 2000 ppm”.
In the case of CCSCc1ccccc1OC(=O)NC [ethiofencarb, 2-ethylthiomethylphenylmethylcarbamate], the aqueous solubility ([2]; 20° C.) is listed as 1800 ppm.
For CNC(=O)ON=C(C)SC [methomyl, S-methyl-N-(methylcarbamoyloxy)thioacetimidate], the aqueous solubility ([2]; temperature not given) is listed as 58000 ppm.
For ClC=CCCl [D-D, 1,3-dichloropropene], the aqueous solubility ([2]; temperature not given) is given as 2000 ppm.
CC(=NC#N)N(C)Cc1ccc(Cl)nc1.CCO.Oc1ccc(C(c2ccc(O)cc2)C(c2ccc(O)cc2)c2ccc(O)cc2)cc1 [Clathrate compound 3] gave a saturated solubility [1] of 230 ppm, a Concentration of acetamiprid ([1]; 1 hour) of 156 ppm and a Concentration of acetamiprid ([1]; 3 hours) of 156 ppm. For the same molecule, the Concentration of acetamiprid ([1]; 24 hours) was 163 ppm, the Concentration of acetamiprid ([1]; 48 hours) was 179 ppm and the Concentration of acetamiprid ([1]; 72 hours) was 200 ppm. It also gave a Concentration of acetamiprid ([1]; 192 hours) of 230 ppm.
In the case of CNC(=O)Oc1cccc2c1OC(C)(C)O2 [bendiocarb, 2,2-dimethyl-1,3-benzodioxol-4-yl-methylcarbamate.hydrochloride], the aqueous solubility ([2]; 25° C.) is given as 26000 ppm.
For CN1COCN(Cc2cnc(Cl)s2)/C1=N\[N+](=O)[O-] [thiamethoxam], the aqueous solubility ([2]; 25° C.) is given as 4100 ppm.
Work on CC(=NC#N)N(C)Cc1ccc(Cl)nc1.CO.Oc1ccc(C(c2ccc(O)cc2)C(c2ccc(O)cc2)c2ccc(O)cc2)cc1 [Clathrate compound 2] yielded a saturated solubility [1] of 238 ppm, a Concentration of acetamiprid ([1]; 1 hour) of 72 ppm and a Concentration of acetamiprid ([1]; 3 hours) of 79 ppm. The Concentration of acetamiprid ([1]; 24 hours) was 161 ppm, the Concentration of acetamiprid ([1]; 48 hours) was 200 ppm and the Concentration of acetamiprid ([1]; 72 hours) was 217 ppm. It also gave a Concentration of acetamiprid ([1]; 192 hours) of 238 ppm.
